Measurements: PubChem BioAssay AID1259407 (Chemical Carcinogenesis Research Information System (CCRIS), 2018)
“Also recorded” adds a separate entry of the source. Active and inactive are the calls of the source. How the calls were made is not given here.

Test system: CCRIS mutagenicity, Ames/micronucleus/aberration tests
Assay: CCRIS mutagenicity studies

CC/C(=C(/CC)c1ccc(O)cc1)c1ccc(O)cc1
mutagenic call (End Point: IN VITRO CHROMOSOMAL ABERRATIONS, Test System: CHINESE HAMSTER CELL DON (22;XY), Metabolic Activation: NONE): active; positive (ploidy changes) | mutagenic call (End Point: IN VITRO CHROMOSOMAL ABERRATIONS, Test System: HUMAN LYMPHOCYTES, Metabolic Activation: NONE, Method: FISH): active; positive (ploidy changes in chromosomes 1, 9, 16); also recorded: active; positive (ploidy changes in chromosomes 7 and 9) | mutagenic call (End Point: IN VITRO CHROMOSOMAL ABERRATIONS, Test System: HUMAN PERIPHERAL LYMPHOCYTES, Metabolic Activation: NONE): inactive; negative | mutagenic call (End Point: IN VITRO CHROMOSOMAL ABERRATIONS, Test System: SYRIAN HAMSTER EMBRYO (SHE) CELLS, Metabolic Activation: NONE): active; positive (ploidy changes) | mutagenic call (End Point: IN VITRO MICRONUCLEUS, Test System: HUMAN PERIPHERAL LYMPHOCYTES, Metabolic Activation: NONE): active; positive | mutagenic call (End Point: IN VITRO MICRONUCLEUS, Test System: V79 CELLS, Metabolic Activation: NONE): active; positive | mutagenic call (Test System: AMES SALMONELLA TYPHIMURIUM, Strain/Indicator: TA97, Metabolic Activation: HAMSTER LIVER S-9, AROCLOR 1254 (10%), Method: PREINCUBATION): inactive; negative | mutagenic call (Test System: AMES SALMONELLA TYPHIMURIUM, Strain/Indicator: TA97, Metabolic Activation: HAMSTER LIVER S-9, AROCLOR 1254 (30%), Method: PREINCUBATION): inactive; negative | mutagenic call (Test System: AMES SALMONELLA TYPHIMURIUM, Strain/Indicator: TA97, Metabolic Activation: NONE, Method: PREINCUBATION): inactive; negative | mutagenic call (Test System: AMES SALMONELLA TYPHIMURIUM, Strain/Indicator: TA97, Metabolic Activation: NONE, Method: STANDARD PLATE): inactive; negative | mutagenic call (Test System: AMES SALMONELLA TYPHIMURIUM, Strain/Indicator: TA97, Metabolic Activation: RAT LIVER S-9, AROCLOR 1254 (10%), Method: PREINCUBATION): inactive; negative | mutagenic call (Test System: AMES SALMONELLA TYPHIMURIUM, Strain/Indicator: TA97, Metabolic Activation: RAT LIVER S-9, AROCLOR 1254 (30%), Method: PREINCUBATION): inactive; negative | mutagenic call (Test System: AMES SALMONELLA TYPHIMURIUM, Strain/Indicator: TA97, Metabolic Activation: RAT, LIVER, S-9, AROCLOR 1254, Method: STANDARD PLATE): inactive; negative | mutagenic call (Test System: AMES SALMONELLA TYPHIMURIUM, Strain/Indicator: TA97, Metabolic Activation: S-9, Method: STANDARD PLATE): inactive; negative | mutagenic call (Test System: AMES SALMONELLA TYPHIMURIUM, Strain/Indicator: TA98, Metabolic Activation: HAMSTER LIVER S-9, AROCLOR 1254 (10%), Method: PREINCUBATION): inactive; negative | mutagenic call (Test System: AMES SALMONELLA TYPHIMURIUM, Strain/Indicator: TA98, Metabolic Activation: HAMSTER LIVER S-9, AROCLOR 1254 (30%), Method: PREINCUBATION): inactive; negative | mutagenic call (Test System: AMES SALMONELLA TYPHIMURIUM, Strain/Indicator: TA98, Metabolic Activation: NONE, Method: PREINCUBATION): inactive; negative | mutagenic call (Test System: AMES SALMONELLA TYPHIMURIUM, Strain/Indicator: TA98, Metabolic Activation: RAT LIVER S-9, AROCLOR 1254 (10%), Method: PREINCUBATION): inactive; negative | mutagenic call (Test System: AMES SALMONELLA TYPHIMURIUM, Strain/Indicator: TA98, Metabolic Activation: RAT LIVER S-9, AROCLOR 1254 (30%), Method: PREINCUBATION): inactive; negative | mutagenic call (Test System: AMES SALMONELLA TYPHIMURIUM, Strain/Indicator: TA98, Metabolic Activation: RAT, LIVER, S-9, AROCLOR 1254, Method: STANDARD PLATE): inactive; negative | mutagenic call (Test System: AMES SALMONELLA TYPHIMURIUM, Strain/Indicator: TA98, Metabolic Activation: RAT, LIVER, S-9, Method: STANDARD PLATE): inactive; negative | mutagenic call (Test System: AMES SALMONELLA TYPHIMURIUM, Strain/Indicator: TA98, Metabolic Activation: S-9, Method: STANDARD PLATE): inactive; negative | mutagenic call (Test System: AMES SALMONELLA TYPHIMURIUM, Strain/Indicator: TA100, Metabolic Activation: HAMSTER LIVER S-9, AROCLOR 1254 (10%), Method: PREINCUBATION): inactive; negative | mutagenic call (Test System: AMES SALMONELLA TYPHIMURIUM, Strain/Indicator: TA100, Metabolic Activation: HAMSTER LIVER S-9, AROCLOR 1254 (30%), Method: PREINCUBATION): inactive; negative | mutagenic call (Test System: AMES SALMONELLA TYPHIMURIUM, Strain/Indicator: TA100, Metabolic Activation: NONE, Method: PREINCUBATION): inactive; negative | mutagenic call (Test System: AMES SALMONELLA TYPHIMURIUM, Strain/Indicator: TA100, Metabolic Activation: RAT LIVER S-9, AROCLOR 1254 (10%), Method: PREINCUBATION): inactive; negative | mutagenic call (Test System: AMES SALMONELLA TYPHIMURIUM, Strain/Indicator: TA100, Metabolic Activation: RAT LIVER S-9, AROCLOR 1254 (30%), Method: PREINCUBATION): inactive; negative | mutagenic call (Test System: AMES SALMONELLA TYPHIMURIUM, Strain/Indicator: TA100, Metabolic Activation: RAT, LIVER, S-9, AROCLOR 1254, Method: STANDARD PLATE): inactive; negative | mutagenic call (Test System: AMES SALMONELLA TYPHIMURIUM, Strain/Indicator: TA100, Metabolic Activation: RAT, LIVER, S-9, Method: STANDARD PLATE): inactive; negative; toxicity at 100 ug/plate | mutagenic call (Test System: AMES SALMONELLA TYPHIMURIUM, Strain/Indicator: TA100, Metabolic Activation: S-9, Method: STANDARD PLATE): inactive; negative | mutagenic call (Test System: AMES SALMONELLA TYPHIMURIUM, Strain/Indicator: TA102, Metabolic Activation: NONE, Method: STANDARD PLATE): inactive; negative | mutagenic call (Test System: AMES SALMONELLA TYPHIMURIUM, Strain/Indicator: TA102, Metabolic Activation: S-9, Method: STANDARD PLATE): inactive; negative | mutagenic call (Test System: AMES SALMONELLA TYPHIMURIUM, Strain/Indicator: TA1535, Metabolic Activation: HAMSTER LIVER S-9, AROCLOR 1254 (30%), Method: PREINCUBATION): inactive; negative | mutagenic call (Test System: AMES SALMONELLA TYPHIMURIUM, Strain/Indicator: TA1535, Metabolic Activation: HAMSTER LIVER, S-9, AROCLOR 1254 (10%), Method: PREINCUBATION): inactive; negative | mutagenic call (Test System: AMES SALMONELLA TYPHIMURIUM, Strain/Indicator: TA1535, Metabolic Activation: NONE, Method: PREINCUBATION): inactive; negative | mutagenic call (Test System: AMES SALMONELLA TYPHIMURIUM, Strain/Indicator: TA1535, Metabolic Activation: RAT LIVER S-9, AROCLOR 1254 (10%), Method: PREINCUBATION): inactive; negative | mutagenic call (Test System: AMES SALMONELLA TYPHIMURIUM, Strain/Indicator: TA1535, Metabolic Activation: RAT LIVER S-9, AROCLOR 1254 (30%), Method: PREINCUBATION): inactive; negative | mutagenic call (Test System: AMES SALMONELLA TYPHIMURIUM, Strain/Indicator: TA1535, Metabolic Activation: RAT, LIVER, S-9, AROCLOR 1254, Method: STANDARD PLATE): inactive; negative | mutagenic call (Test System: AMES SALMONELLA TYPHIMURIUM, Strain/Indicator: TA1535, Metabolic Activation: RAT, LIVER, S-9, Method: STANDARD PLATE): inactive; negative; toxicity at 50 and 100 ug/plate | mutagenic call (Test System: AMES SALMONELLA TYPHIMURIUM, Strain/Indicator: TA1537, Metabolic Activation: RAT, LIVER, S-9, AROCLOR 1254, Method: STANDARD PLATE): inactive; negative | mutagenic call (Test System: AMES SALMONELLA TYPHIMURIUM, Strain/Indicator: TA1537, Metabolic Activation: RAT, LIVER, S-9, Method: STANDARD PLATE): inactive; negative | mutagenic call (Test System: AMES SALMONELLA TYPHIMURIUM, Strain/Indicator: TA1538, Metabolic Activation: NONE, Method: STANDARD PLATE): inactive; negative | mutagenic call (Test System: AMES SALMONELLA TYPHIMURIUM, Strain/Indicator: TA1538, Metabolic Activation: RAT, LIVER, S-9, AROCLOR 1254, Method: STANDARD PLATE): inactive; negative | mutagenic call (Test System: AMES SALMONELLA TYPHIMURIUM, Strain/Indicator: TA1538, Metabolic Activation: RAT, LIVER, S-9, Method: STANDARD PLATE): inactive; negative | mutagenic call (Test System: E. COLI, Strain/Indicator: WP2 UVRA, Metabolic Activation: HAMSTER, LIVER, S-9, AROCLOR 1254, Method: STANDARD PLATE): inactive; negative | mutagenic call (Test System: E. COLI, Strain/Indicator: WP2 UVRA, Metabolic Activation: HAMSTER, LIVER, S-9, Method: STANDARD PLATE): inactive; negative | mutagenic call (Test System: E. COLI, Strain/Indicator: WP2 UVRA, Metabolic Activation: MOUSE, LIVER, S-9, AROCLOR 1254, Method: STANDARD PLATE): inactive; negative | mutagenic call (Test System: E. COLI, Strain/Indicator: WP2 UVRA, Metabolic Activation: MOUSE, LIVER, S-9, Method: STANDARD PLATE): inactive; negative | mutagenic call (Test System: E. COLI, Strain/Indicator: WP2 UVRA, Metabolic Activation: NONE, Method: STANDARD PLATE): inactive; negative | mutagenic call (Test System: E. COLI, Strain/Indicator: WP2 UVRA, Metabolic Activation: RAT, LIVER, S-9, AROCLOR 1254, Method: STANDARD PLATE): inactive; negative | mutagenic call (Test System: E. COLI, Strain/Indicator: WP2 UVRA, Metabolic Activation: RAT, LIVER, S-9, Method: STANDARD PLATE): inactive; negative | mutagenic call (Test System: MOUSE LYMPHOMA, Strain/Indicator: L5178Y (TK+/+)/OUABAIN, Metabolic Activation: NONE, Method: SUSPENSION/PLATE): inactive; negative | mutagenic call (Test System: MOUSE LYMPHOMA, Strain/Indicator: L5178Y (TK+/+)/OUABAIN, Metabolic Activation: RAT LIVER S-9, AROCLOR 1254, Method: SUSPENSION/PLATE): active; positive | mutagenic call (Test System: MOUSE LYMPHOMA, Strain/Indicator: L5178Y (TK+/-)/TRIFLUROTHYMIDINE, Metabolic Activation: NONE, Method: SUSPENSION/PLATE): inactive; negative | mutagenic call (Test System: MOUSE LYMPHOMA, Strain/Indicator: L5178Y (TK+/-)/TRIFLUROTHYMIDINE, Metabolic Activation: RAT LIVER S-9, AROCLOR 1254, Method: SUSPENSION/PLATE): active; positive | mutagenic call (Test System: MOUSE LYMPHOMA, Strain/Indicator: L5178Y (TK+/TK-), Metabolic Activation: NONE, Method: MICROWELL): inactive; negative | mutagenic call (Test System: MOUSE LYMPHOMA, Strain/Indicator: L5178Y (TK+/TK-), Metabolic Activation: S-9, Method: MICROWELL): active; positive | mutagenic call (Test System: UDS RAT HEPATOCYTES, Strain/Indicator: THY INCORP (18-20 HR), Metabolic Activation: NONE, Method: LIQUID SCINTILLATION COUNTING): inactive; negative | mutagenic call (Test System: UDS RAT HEPATOCYTES, Strain/Indicator: THY INCORP, Metabolic Activation: NONE, Method: LIQUID SCINTILLATION COUNTING): inactive; negative
